Results reported in patent publication US7250417B2, “Arylmethyl triazolo- and imidazopyrazines as c-Met inhibitors” (Sugen Inc., priority 2003, dated 2007).
Values joined by “and” are separate entries in the source; they are usually repeats but may differ in a detail not shown here. Equal values may be shown once.

target: T1, c-MET (purified GST fusion protein containing the Met kinase domain) (Homo sapiens, UniProt P08581); experiment: Met transphosphorylation assay (ELISA, poly(Glu,Tyr) 4:1 substrate); type: biochemical; details: purified GST-Met kinase domain 10 ng/well
T1 construct: Purified GST fusion protein containing the Met kinase domain, Sugen, Inc
Experimental: Met Transphosphorylation Assay
This assay is used to measure phosphotyrosine levels on a poly(glutamic acid:tyrosine (4:1)) substrate as a means for identifying agonists/antagonists of met transphosphorylation of the substrate.
• 1. […] PBS, Gibco Catalog #450-1300EB • 4. 50 mM HEPES • 5. […] Purified GST fusion protein containing the Met kinase domain, Sugen, Inc. • 7. TBST Buffer. • 8. 10% aqueous (MilliQue H2O) DMSO. • 9. […] 2× Kinase Dilution Buffer: for 100 ml, mix 10 mL 1 M HEPES at pH 7.5 with 0.4 mL 5% BSA/PBS, 0.2 mL 0.1 M sodium orthovanadate and 1 mL 5M sodium chloride in 88.4 mL dH2O. • 11. 4× ATP Reaction Mixture: for 10 mL, mix 0.4 mL 1 M manganese chloride and 0.02 mL 0.1 M ATP in 9.56 mL dH2O. • 12. 4× Negative Controls Mixture: for 10 mL, mix 0.4 mL 1 M manganese chloride in 9.6 mL dH2O. • 13. […] 500 mM EDTA. • 15. Antibody Dilution Buffer: for 100 mL, mix 10 mL 5% BSA/PBS, 0.5 mL 5% Camation Instant Milk® in PBS and 0.1 mL 0.1 M sodium orthovanadate in 88.4 mL TBST. • 16. Rabbit polyclonal antophosphotyrosine antibody, Sugen, Inc. • 17. Goat anti-rabbit horseradish peroxidase conjugated antibody, Biosource, Inc. • 18. ABTS Solution: for 1 L, mix 19.21 g citric acid, 35.49 g Na2HPO4 and 500 mg ABTS with sufficient dH2O to make 1 L. • 19. ABTS/H2O2: mix 15 mL ABST solution with 2ILL H2O2 five minutes before use. • 20. 0.2 M HCl Procedure: • 1. Coat ELISA plates with 2 μg Poly(Glu-Tyr) in 100 pL PBS, store overnight at 4° C. • 2. Block plate with 150 μL of 5% BSA/PBS for 60 min. • 3. Wash plate twice with PBS, once with 50 mM Hepes buffer pH 7.4. • 4. Add 50 μl of the diluted kinase to all wells. (Purified kinase is diluted with Kinase Dilution Buffer. Final concentration should be 10 ng/well.) • 5. Add 25 μL of the test compound (in 4% DMSO) or DMSO alone (4% in dH2O) for controls to plate. • 6. Incubate the kinase/compound mixture for 15 minutes. • 7. Add 25 μL of 40 mM MnCl2to the negative control wells. • 8. Add 25 μL ATP/MnCl2 mixture to the all other wells (except the negative controls). Incubate for 5 min. • 9. Add 25 μL 500 mM EDTA to stop reaction. • 10. Wash plate 3× with TBST. 11. Add 100 μL rabbit polyclonal anti-Ptyr diluted 1:10,000 in Antibody Dilution Buffer to each well. Incubate, with shaking, at room temperature for one hour. • 12. Wash plate 3× with TBST. • 13. […] Add 100 μL per well and incubate at room temperature, with shaking, for one hour. • 14. Wash plate 1× with PBS. • 15. Add 100 μl of ABTS/H2O2 solution to each well. • 16. If necessary, stop the development reaction with the addition of 100 μl of 0.2M HCl per well. • 17.

T1 sequence (P08581 1078-1345 limits assumed): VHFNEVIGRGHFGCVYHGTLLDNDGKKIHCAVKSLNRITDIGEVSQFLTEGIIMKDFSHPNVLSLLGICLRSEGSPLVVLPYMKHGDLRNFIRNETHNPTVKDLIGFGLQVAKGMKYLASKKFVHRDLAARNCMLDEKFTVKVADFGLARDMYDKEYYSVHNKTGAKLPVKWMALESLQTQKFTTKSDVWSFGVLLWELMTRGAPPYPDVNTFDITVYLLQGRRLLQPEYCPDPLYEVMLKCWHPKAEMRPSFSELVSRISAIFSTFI

SMILES	IC50
Fc1ccc(Cn2nnc3ncc(Br)nc32)cc1 [Example 8, 6-Bromo-1-(4-fluoro-benzyl)-1H-[1,2,3]triazolo[4,5-b]pyrazine]	0.31 µM and 1.71 µM
Fc1ccc(Cn2cnc3ncc(-c4ccc(F)cc4)nc32)cc1 [Example 5, 1-(4-Fluoro-benzyl)-6-(4-fluoro-phenyl)-1H-imidazo[4,5-b]pyrazine]	> 20 µM
Fc1ccc(Cn2cnc3ncc(-c4cccc(OCCN5CCOCC5)c4)nc32)cc1 [Example 6, 1-(4-Fluoro-benzyl)-6-[3-(2-morpholin-4-yl-ethoxy)-phenyl]-1H-imidazo[4,5-b]pyrazine]	> 20 µM
Fc1ccc(Cn2cnc3ncc(-c4ccc(OCCN5CCOCC5)cc4)nc32)cc1 [Example 7, 1-(4-Fluoro-benzyl)-6-[4-(2-morpholin-4-yl-ethoxy)-phenyl]-1H-imidazo[4,5-b]pyrazine]	> 20 µM
Fc1ccc(Cn2cnc3ncc(-c4cccs4)nc32)cc1 [Example 4, 1-(4-Fluoro-benzyl)-6-thiophen-2-yl-1 H-imidazo[4,5-b]pyrazine]	> 20 µM
COc1ccc(Cn2cnc3ncc(Br)cc32)cc1 [Example 13, 6-Bromo-1-(4-methoxy-benzyl)-1H-imidazo[4,5-b]pyridine]	> 20 µM

Further lines, results first:

IC50	SMILES
1.15 µM	Fc1ccc(Cn2nnc3ncc(-c4cc5ccccc5[nH]4)nc32)cc1 [Example 12, 1-(4-Fluoro-benzyl)-6-(1H-indol-2-yl)-1H-[1,2,3]triazolo[4,5-b]pyrazine]
0.16 µM	Fc1ccc(Cn2nnc3ncc(-c4cccs4)nc32)cc1 [Example 9, 1-(4-Fluoro-benzyl)-6-thiophen-2-yl-1H-[1,2,3]triazolo[4,5-b]pyrazine]
0.17 µM	Fc1ccc(Cn2nnc3ncc(-c4ccc(OCCN5CCOCC5)cc4)nc32)cc1 [Example 11, 1-(4-Fluoro-benzyl)-6-[4-(2-morpholin-4-yl-ethoxy)-phenyl]-1H-[1,2,3]triazolo[4,5-b]pyrazine]
1.79 µM	COc1ccc(Cn2cnc3ncc(-c4ccc(F)cc4)nc32)cc1 [Example 2, 6-(4-Fluoro-phenyl)-1-(4-methoxy-benzyl)-1H-imidazo[4,5-b]pyrazine]
1 µM	Fc1ccc(Cn2nnc3ncc(-c4cccc(OCCN5CCOCC5)c4)nc32)cc1 [Example 10, 1-(4-Fluoro-benzyl)-6-[3-(2-morpholin-4-yl-ethoxy)-phenyl]-1H-[1,2,3]triazolo[4,5-b]pyrazine]
0.15 µM	Oc1ccc(Cn2cnc3ncc(-c4cccs4)nc32)cc1 [Example 1, 4-(6-Thiophen-2-yl-imidazo[4,5-b]pyrazin-1-ylmethyl)-phenol]
9.6 µM	Oc1ccc(Cn2cnc3ncc(Br)cc32)cc1 [Example 14, 4-(6-Bromo-imidazo[4,5-b]pyridin-1-ylmethyl)-phenol]
